Marks after values point to notes of the source that are not given here.
Test system: hES cells
Assay: Quantitative RT-PCR analysis of gene expression in hESC differentiation (culture with RA or DMSO)
Format: cell-based, human
Conditions: for Fold Change, 130 kDa leucine-rich protein (LRP 130) mRNA / Fold Change, Bone marrow stromal antigen 2 (BST-2) mRNA / Fold Change, Bone morphogenetic protein receptor, type Ia (BMPR1A) (ALK-3) mRNA / Fold Change, EST (GA_28053, T24677) / Fold Change, Early development regulator 1 (polyhomeotic 1 homolog) (EDR1) mRNA / Fold Change, Ephrin type-a receptor 1 (EPHA1) mRNA / Fold Change, FLJ31267 (acetylglucosaminyltransferase-like protein) mRNA / Fold Change, Fibroblast growth factor receptor 3 precursor (FGFR-3) mRNA / Fold Change, Forkhead box h1 (FOXH1) mRNA / Fold Change, Forkhead box o1a (foxo1a) mRNA / Fold Change, Gamma-aminobutyric acid (GABA) A receptor, beta 3 mRNA / Fold Change, Gastrin-releasing peptide receptor (GRP-R) mRNA / Fold Change, Glypican-2 (cerebroglycan) mRNA / Fold Change, Hypothetical protein BC018070 mRNA / Fold Change, Hypothetical protein FLJ14549 mRNA / Fold Change, Kallmann syndrome 1 sequence (KAL1) mRNA / Fold Change, Krab-zinc finger protein SZF1-1 mRNA / Fold Change, Left-right determination, factor b (LEFTB) mRNA / Fold Change, Nell2 (NEL-like protein 2) mRNA / Fold Change, Notch 1 (N1) mRNA / Fold Change, Octamer-binding transcription factor 3a (OCT-3A) (OCT-4) mRNA / Fold Change, Podocalyxin-like (PODXL) mRNA / Fold Change, Potassium channel subfamily k member 5 (TASK-2) mRNA / Fold Change, Protein tyrosine phosphatase, receptor-type, z polypeptide 1 (PTPRZ1) mRNA / Fold Change, Roundabout, axon guidance receptor, homolog 1 (ROBO1) mRNA / Fold Change, Sal-like 1 (SALL1) mRNA / Fold Change, Secreted phosphoprotein 1 (osteopontin) mRNA / Fold Change, Solute carrier family 6, member 8 (SLC6A8) mRNA / Fold Change, Telomerase reverse transcriptase (TERT) mRNA / Fold Change, Teratocarcinoma-derived growth factor 1 (CRIPTO) mRNA / Fold Change, Thy-1 co-transcribed mRNA / Fold Change, Zic family member 3 (ZIC3) mRNA / Fold Change, Zinc finger protein of cerebellum ZIC2 mRNA / Fold Change, Zinc finger protein, HSAL2 mRNA / Fold Change, Pr domain containing 14 (PRDM14) mRNA: hES cells cultured 1 week with 500 nM RA or 0.5% DMSO; for Fold Change, Pr domain containing 14 (PRDM14) mRNA: normalised to 18S rRNA, 2^-ddCT
Method: To verify the expression patterns of particular genes of interest at the mRNA level, extracts of undifferentiated hES cells and their differentiated progeny were assayed by real-time PCR. Cells were cultured for 1 week with 0.5% dimethyl sulfoxide (DMSO) or 500 nM retinoic acid (RA). The samples were amplified using sequence-specific primers, and the rate of amplification was correlated with the expression level of each gene in the cell population.
Taqman™ RT-PCR was performed under the following conditions: 1×RT Master Mix (ABI), 300 nM for each primer, and 80 nM of probe, and 10 pg to 100 ng of total RNA in nuclease-free water. The reaction was conducted under default RT-PCR conditions of 48° C. hold for 30 min, 95° C. hold for 10 min, and 40 cycles of 95° C. at 15 sec and 60° C. hold for 1 min. RNA was isolated by a guanidinium isothiocyanate method (RNAeasy™ kit, Qiagen) according to manufacturer's instructions, and subsequently DNAse treated (DNAfree™ kit, Ambion). Gene-specific primers and probes were designed by PrimerExpress™ software (Ver. 1.5, ABI). Probe oligonucleotides were synthesized with the fluorescent indicators 6-carboxyfluorescein (FAM) and 6-carboxy-tetramethylrhodamine (TAMRA) at the 5′ and 3′ ends, respectively. Relative quantitation of gene expression between multiple samples was achieved by normalization against endogenous 18S ribosomal RNA (primer and probe from ABI) using the ΔΔCT method of quantitation (ABI). Fold change in expression level was calculated as 2^−ΔΔCT.
Since the cells have been cultured in RA and DMSO for a short period, they are at the early stages of differentiation, and the difference in expression level is less dramatic than it would be after further differentiation. Of particular interest for following or modulating the differentiation process are markers that show modified expression within the first week of differentiation by more than 2-fold (*), 5-fold (**), 10-fold (***), or 100-fold (****).
KALL and EPHAL were not tested.

[1] = H9 hES cells after culturing for 7 days with RA or DM (FIG. 1)

In the case of `C[S+](C)[O-]` [DMSO, dimethyl sulfoxide], the “Gene expression of ICAM in differentiated cells” value [1] is reported as “below the limit of detection”, the “Gene expression of rhodopsin in differentiated cells” value [1] is reported as “below the limit of detection” and the “Fold Change, 130 kDa leucine-rich protein (LRP 130) mRNA” value is reported as −1.9 fold. For the same compound, the “Fold Change, Bone marrow stromal antigen 2 (BST-2) mRNA” value was −1.9 fold, the “Fold Change, Bone morphogenetic protein receptor, type Ia (BMPR1A) (ALK-3) mRNA” value was −2.4 fold and the “Fold Change, EST (GA_28053, T24677)” value was <−100* fold. The “Fold Change, Early development regulator 1 (polyhomeotic 1 homolog) (EDR1) mRNA” value was −5.6 fold, the “Fold Change, Ephrin type-a receptor 1 (EPHA1) mRNA” value was −1.9 fold and the “Fold Change, FLJ31267 (acetylglucosaminyltransferase-like protein) mRNA” value was −4.5 fold. The “Fold Change, Fibroblast growth factor receptor 3 precursor (FGFR-3) mRNA” value was 2.3 fold, the “Fold Change, Forkhead box h1 (FOXH1) mRNA” value was −5.6 fold and the “Fold Change, Forkhead box o1a (foxo1a) mRNA” value was −2.9 fold. The “Fold Change, Gamma-aminobutyric acid (GABA) A receptor, beta 3 mRNA” value was −5.6 fold, the “Fold Change, Gastrin-releasing peptide receptor (GRP-R) mRNA” value was −9.1 fold and the “Fold Change, Glypican-2 (cerebroglycan) mRNA” value was −1.2 fold. For the same compound, the “Fold Change, Hypothetical protein BC018070 mRNA” value was −10.0 fold, the “Fold Change, Hypothetical protein FLJ14549 mRNA” value was −10.0 fold and the “Fold Change, Kallmann syndrome 1 sequence (KAL1) mRNA” value was −2.5 fold. For the same compound, the “Fold Change, Krab-zinc finger protein SZF1-1 mRNA” value was −3.1 fold, the “Fold Change, Left-right determination, factor b (LEFTB) mRNA” value was −25.0 fold and the “Fold Change, Nell2 (NEL-like protein 2) mRNA” value was −1.3 fold. For the same compound, the “Fold Change, Notch 1 (N1) mRNA” value was 1.0 fold, the “Fold Change, Octamer-binding transcription factor 3a (OCT-3A) (OCT-4) mRNA” value was −7.7 fold and the “Fold Change, Podocalyxin-like (PODXL) mRNA” value was −4.3 fold. For the same compound, the “Fold Change, Potassium channel subfamily k member 5 (TASK-2) mRNA” value was 1.0 fold, the “Fold Change, Protein tyrosine phosphatase, receptor-type, z polypeptide 1 (PTPRZ1) mRNA” value was −3.3 fold and the “Fold Change, Roundabout, axon guidance receptor, homolog 1 (ROBO1) mRNA” value was 1.0 fold. For the same compound, the “Fold Change, Sal-like 1 (SALL1) mRNA” value was −1.3 fold, the “Fold Change, Secreted phosphoprotein 1 (osteopontin) mRNA” value was −10.0 fold and the “Fold Change, Solute carrier family 6, member 8 (SLC6A8) mRNA” value was −1.1 fold. For the same compound, the “Fold Change, Telomerase reverse transcriptase (TERT) mRNA” value was −2.3 fold, the “Fold Change, Teratocarcinoma-derived growth factor 1 (CRIPTO) mRNA” value was −12.5 fold and the “Fold Change, Thy-1 co-transcribed mRNA” value was −11.1 fold. For the same compound, the “Fold Change, Zic family member 3 (ZIC3) mRNA” value was −5.3 fold, the “Fold Change, Zinc finger protein of cerebellum ZIC2 mRNA” value was −2.9 fold and the “Fold Change, Zinc finger protein, HSAL2 mRNA” value was −2.8 fold. The “Fold Change, Pr domain containing 14 (PRDM14) mRNA” value was −8.3 fold.
In the case of `CC1=C(/C=C/C(C)=C/C=C/C(C)=C/C(=O)O)C(C)(C)CCC1` [RA, retinoic acid], the “Fold Change, 130 kDa leucine-rich protein (LRP 130) mRNA” value is reported as −1.9 fold, the “Fold Change, Bone marrow stromal antigen 2 (BST-2) mRNA” value is reported as 1.1 fold and the “Fold Change, Bone morphogenetic protein receptor, type Ia (BMPR1A) (ALK-3) mRNA” value is reported as −2.4 fold. The “Fold Change, EST (GA_28053, T24677)” value was <−100* fold, the “Fold Change, Early development regulator 1 (polyhomeotic 1 homolog) (EDR1) mRNA” value was −1.8 fold and the “Fold Change, Ephrin type-a receptor 1 (EPHA1) mRNA” value was −1.3 fold. For the same compound, the “Fold Change, FLJ31267 (acetylglucosaminyltransferase-like protein) mRNA” value was −2.3 fold, the “Fold Change, Fibroblast growth factor receptor 3 precursor (FGFR-3) mRNA” value was 1.5 fold and the “Fold Change, Forkhead box h1 (FOXH1) mRNA” value was −1.8 fold. The “Fold Change, Forkhead box o1a (foxo1a) mRNA” value was −1.6 fold, the “Fold Change, Gamma-aminobutyric acid (GABA) A receptor, beta 3 mRNA” value was −2.8 fold and the “Fold Change, Gastrin-releasing peptide receptor (GRP-R) mRNA” value was −6.3 fold. For the same compound, the “Fold Change, Glypican-2 (cerebroglycan) mRNA” value was −1.5 fold, the “Fold Change, Hypothetical protein BC018070 mRNA” value was −3.2 fold and the “Fold Change, Hypothetical protein FLJ14549 mRNA” value was −2.3 fold. For the same compound, the “Fold Change, Kallmann syndrome 1 sequence (KAL1) mRNA” value was −1.1 fold, the “Fold Change, Krab-zinc finger protein SZF1-1 mRNA” value was −1.8 fold and the “Fold Change, Left-right determination, factor b (LEFTB) mRNA” value was −16.7 fold. The “Fold Change, Nell2 (NEL-like protein 2) mRNA” value was −1.3 fold, the “Fold Change, Notch 1 (N1) mRNA” value was 1.3 fold and the “Fold Change, Octamer-binding transcription factor 3a (OCT-3A) (OCT-4) mRNA” value was −3.7 fold. The “Fold Change, Podocalyxin-like (PODXL) mRNA” value was −2.6 fold, the “Fold Change, Potassium channel subfamily k member 5 (TASK-2) mRNA” value was −1.6 fold and the “Fold Change, Protein tyrosine phosphatase, receptor-type, z polypeptide 1 (PTPRZ1) mRNA” value was −1.7 fold. The “Fold Change, Roundabout, axon guidance receptor, homolog 1 (ROBO1) mRNA” value was 1.1 fold, the “Fold Change, Sal-like 1 (SALL1) mRNA” value was 1.4 fold and the “Fold Change, Secreted phosphoprotein 1 (osteopontin) mRNA” value was −3.8 fold. The “Fold Change, Solute carrier family 6, member 8 (SLC6A8) mRNA” value was −1.1 fold, the “Fold Change, Telomerase reverse transcriptase (TERT) mRNA” value was −2.1 fold and the “Fold Change, Teratocarcinoma-derived growth factor 1 (CRIPTO) mRNA” value was −4.0 fold. The “Fold Change, Thy-1 co-transcribed mRNA” value was −12.5 fold, the “Fold Change, Zic family member 3 (ZIC3) mRNA” value was −1.7 fold and the “Fold Change, Zinc finger protein of cerebellum ZIC2 mRNA” value was 1.0 fold. For the same compound, the “Fold Change, Zinc finger protein, HSAL2 mRNA” value was −1.4 fold and the “Fold Change, Pr domain containing 14 (PRDM14) mRNA” value was −1.9 fold.
